Entries after “also recorded” stand apart in the source; their conditions may differ.
Key:
Assay type in all cases: in vivo, cynomolgus monkeys (Macaca fascicularis)
[1] = test system: chronic low dose MPTP-treated monkeys; assay: spatial delayed response (DR) task
Description: (§1) Four adult male cynomolgus monkeys (Macaca fascicularis) weighing 5.0-8.0 kg at the beginning of testing were used. All animals had prior behavioral testing experience and had stable cognitive deficits as a result of prior MPTP administration. These animals had previously been used in other pharmacological studies (Schneider J S, Tinker J P, Van Velson M, Menzaghi F, Lloyd G K. Nicotinic acetylcholine receptor agonist SIB-1508Y improves cognitive functioning in chronic low dose MPTP-treated monkeys. J Pharmacol Exp Ther 290: In Press, 1999) but had received no drug treatments for at least 6 mos. prior to the start of this study. This study was approved by the Institutional Animal Care and Use Committee at Thomas Jefferson University and performed in accordance with the NIH Guide for the Care and Use of Laboratory Animals.
(§2) Three of the four animals were tested in a modified Wisconsin General Test Apparatus (WGTA) (Schneider and Kovelowski, 1990); one animal performed computer automated tasks while seated in front of a touch sensitive computer monitor located in a darkened sound-attenuated cubicle. All monkeys performed a spatial delayed response (DR) task, a variable delayed response task (VDR) and a visual discrimination (VD) task.
(§3) The monkeys that performed in the WGTA sat in a restraining chair situated in a sound-attenuating chamber with background masking noise, behind an opaque screen that when raised, allowed access to a sliding tray. The tray contained recessed food wells and identical sliding red Plexiglas covers that served as stimulus plaques that could be displaced by the animal to obtain rewards (raisins, dried fruit, marshmallows). The monkeys were trained to retrieve food from one of the wells after observing the experimenter bait a well. Right and left wells were baited in a balanced order. Each daily session consisted of 30 trials. For VDR testing, five different delay lengths (2, 5, 10, 20 and 30 secs.) were randomly distributed in blocks of trials over the 40 trials that made up a daily testing session. For VD testing, monkeys were trained to discriminate between two patterns (a cross and a horizontal bar) on otherwise identical Plexiglas covers. The position of the positive stimulus (cross) over the left or right food well varied pseudorandomly. The cover had to be displaced in order to retrieve reward from the recessed food well beneath the cover. A test session consisted of 30 trials. Animals were food deprived overnight prior to testing the next day.
(§4) The monkey that performed the computer automated tasks sat in a restraining chair situated in a sound-attenuating chamber with background masking noise, and faced a touch sensitive computer screen with a lever located beneath it. The animal initiated a DR or VDR trial by holding down the lever for one to three seconds. This caused the cue, a filled white circle one inch in diameter, to appear on the right or left side of the screen for two seconds. The cue was then extinguished for a delay period (five seconds for DR; 2, 5, 10, 20, and 30 secs. for VDR) and then identical left and right choice stimuli (filled red circles, one inch in diameter) were presented. The monkey was rewarded with a fruit flavored drink from an automatic dispenser if it touched the response light located on the same side as where the cue appeared. Side of cue presentation was counter-balanced and left/right rewards were distributed pseudorandomly over the 30 trials (40 trials for VDR) that made up a daily testing session. This animal was tested in the morning and fluid deprived overnight prior to testing.
(§5) Animals initially received low doses of MPTP for periods of up to 178 days until stable cognitive deficits (consistent performance deficits of at least 15% on DR) were observed (Schneider et al., 1999). These animals had not received any MPTP for at least 9 months prior to the start of this study. […]

[2] = test system: chronic low dose MPTP-treated monkeys; assay: visual discrimination (VD) task
Description: as §1, §2
as §3, with “A test session consisted of 30 trials. Animals were food deprived overnight prior to testing the next day.” left out
Animals initially received low doses of MPTP for periods of up to 178 days until stable cognitive deficits (consistent performance deficits of at least 15% on DR) were observed (Schneider et al., 1999). […] Drug effects were determined for D-cycloserine and MK-801 (Research Biochemicals International, Natick, M A) at doses of 100, 320, 1,000, and 8,000 μg/kg and 10, 20 or 32 μg/kg, respectively. […]

[3] = test system: chronic low dose MPTP-treated monkeys; assay: motor functioning during visual discrimination testing
[4] = test system: chronic low dose MPTP-treated monkeys; assay: variable delayed response (VDR) task
Description: as §1, §2, §3, §4, §5

Row | SMILES | DR performance ([1]; 10-32 μg/kg i.m., vs. saline) | VD performance ([2]; 10-32 μg/kg i.m., all animals, p<0.01 vs. saline, FIG. 2) | motor functioning ([3]; 10-32 μg/kg i.m.) | DR performance ([1]; 100 μg/kg i.m., approx. 30 min before test, vs. saline) | DR performance ([1]; 320 μg/kg i.m., approx. 30 min before test, vs. saline (t=6.73, p<0.01)) | DR performance ([1]; 1,000 μg/kg i.m., approx. 30 min before test, vs. saline (t=3.76, p<0.05)) | DR performance ([1]; 8,000 μg/kg i.m., approx. 30 min before test, vs. saline) | MPTP-induced DR performance deficit ([1]; dose response 100 to 1000 μg/kg i.m., 4 animals, FIG. 1A) | VDR performance ([4]; 100 μg/kg i.m., all delays (2, 5, 10, 20, 30 sec)) | VDR performance ([4]; 320 μg/kg i.m., at 2, 5, and 20 sec. delays) | VDR performance ([4]; 1,000 μg/kg i.m., at 2, 5, and 10 sec delays) | VDR performance ([4]; 8,000 μg/kg i.m.) | VDR performance ([4]; 30 sec. delay, any dose) | VDR performance ([4]; best (most facilitating) dose for each animal vs. saline, FIG. 1B) | VD performance ([2]; 8,000 μg/kg i.m., all animals, p<0.01 vs. saline, FIG. 2) | VD performance ([2]; 100 to 1,000 μg/kg i.m.) | deficits in VD performance ([2]; low doses (10, 32 or 100 μg/kg)) | motor functioning ([3]; 8,000 μg/kg i.m.)
1 | C[C@]12N[C@H](Cc3ccccc31)c1ccccc12 [MK-801] | had no effects | significantly disrupted; also recorded: significant impairment | did not significantly impair motor functioning | – | – | – | – | – | – | – | – | – | – | – | – | – | – | –
2 | N[C@@H]1CONC1=O [D-cycloserine] | – | – | – | Neither the low (100 μg/kg) nor high (8,000 μg/kg) doses of D-cycloserine had any effect | significantly improving task performance | significantly improving task performance | Neither the low (100 μg/kg) nor high (8,000 μg/kg) doses of D-cycloserine had any effect; also recorded: neither improvement nor further disruption | at least partially corrected | had no effects | significantly improved performance | significantly improved performance | neither improvement nor further disruption | None of the doses of D-cycloserine improved performance | significantly improved performance at all but the longest delay | significantly disrupted; also recorded: significantly impaired; also recorded: deficits induced in VD performance | had no effects | not with low doses | did not significantly impair motor functioning

Reference: US6551993B1, “Partial agonists at the glycine modulatory site of the NMDA receptor for treating cognitive dysfunction” (Thomas Jefferson University, priority 1999, dated 2003)
